We go through one compound from publication PMC8930067 (Cardiovascular Research, 2021).

Structures can show the parent of a compound that is named as a salt.

The experiment addresses SERCA2a (Rattus norvegicus, UniProt P11507). Kind of experiment: […]-ATP hydrolysis. Format: cell-based. The following applies: read-out: % Vmax at 500 nmol/L.

Sequence of SERCA2a (P11507 1-997 isoform P11507-2): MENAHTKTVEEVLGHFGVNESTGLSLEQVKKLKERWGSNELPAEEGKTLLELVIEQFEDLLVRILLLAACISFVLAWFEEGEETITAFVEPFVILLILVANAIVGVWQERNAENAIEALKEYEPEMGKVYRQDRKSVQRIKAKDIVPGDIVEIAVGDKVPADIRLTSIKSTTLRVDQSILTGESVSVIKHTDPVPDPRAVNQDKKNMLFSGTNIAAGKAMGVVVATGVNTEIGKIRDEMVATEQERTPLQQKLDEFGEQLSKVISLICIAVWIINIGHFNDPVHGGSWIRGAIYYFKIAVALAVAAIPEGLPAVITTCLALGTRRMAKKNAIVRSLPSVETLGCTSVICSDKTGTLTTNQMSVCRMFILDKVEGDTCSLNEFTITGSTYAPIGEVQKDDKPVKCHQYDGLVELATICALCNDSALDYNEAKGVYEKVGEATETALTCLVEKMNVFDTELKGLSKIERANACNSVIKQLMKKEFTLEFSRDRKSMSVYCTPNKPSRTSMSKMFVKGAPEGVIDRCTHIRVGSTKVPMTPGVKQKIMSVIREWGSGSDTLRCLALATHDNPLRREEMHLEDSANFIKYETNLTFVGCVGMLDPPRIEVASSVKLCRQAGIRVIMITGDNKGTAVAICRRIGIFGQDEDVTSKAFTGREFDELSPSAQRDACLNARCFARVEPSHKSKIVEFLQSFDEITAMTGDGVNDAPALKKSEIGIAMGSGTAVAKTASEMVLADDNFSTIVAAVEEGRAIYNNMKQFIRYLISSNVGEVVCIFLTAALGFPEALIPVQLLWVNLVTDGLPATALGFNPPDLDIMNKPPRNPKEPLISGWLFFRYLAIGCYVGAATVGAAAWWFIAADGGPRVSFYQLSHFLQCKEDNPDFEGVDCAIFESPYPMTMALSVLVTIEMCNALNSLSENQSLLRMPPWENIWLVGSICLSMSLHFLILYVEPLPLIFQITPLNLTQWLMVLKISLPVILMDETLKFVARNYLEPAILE

Take `C[C@]12CCC(=NOCCN)C[C@@H]1C(=O)C[C@@H]1[C@@H]2CC[C@]2(C)C(=O)CC[C@@H]12` [istaroxime, (E,Z)-3-((2-aminoethoxy)imino)androstane-6,17-dione hydrochloride]: the activation at 0.5 µM amounted to 25%.
